# ChEMBL document CHEMBL3885861, “Open TG-GATES”
# Species: Rattus norvegicus
# Assay: Open TG-GATES - Regimen: Daily Repeat
# Assay type: toxicity, organism-based, Sprague-Dawley
# Parameters: regimen Daily Repeat, gender Male, age 6 weeks
# Settings: in vivo, po, 0 mg/kg, route gavage, dose level Control; for APTT / Bas / Eos / Fbg / Hb / Ht / Lym / MCH / MCHC / MCV / Mono / Neu / PT / Plat / RBC / Ret / WBC: tissue Blood; for KIDNEY_L / KIDNEY_R / KIDNEY_TOTAL: tissue Kidney; for LIVER: tissue Liver; for A/G / ALP / ALT / AST / BUN / CRE / Ca / Cl / DBIL / GLC / IP / K / LDH / Na / PL / RALB / TBIL / TC / TG / TP / gamma-GTP: tissue Plasma
compound,measurement,setting,value
Cc1cccc(Nc2ccccc2C(=O)O)c1C [MEFENAMIC ACID],TERMINAL_BW,"72 h, time 3 day",233.8 g
same,APTT,"72 h, time 3 day",19.9 s
same,Bas,"72 h, time 3 day",0%
same,Eos,"72 h, time 3 day",0.8%
same,Fbg,"72 h, time 3 day",223.4 mg/dL
same,Hb,"72 h, time 3 day",13.4 g/dL
same,Ht,"72 h, time 3 day",38.3%
same,Lym,"72 h, time 3 day",76%
same,MCH,"72 h, time 3 day",21.9 pg
same,MCHC,"72 h, time 3 day",35.1%
same,MCV,"72 h, time 3 day",62.4 fL
same,Mono,"72 h, time 3 day",2.6%
same,Neu,"72 h, time 3 day",18.2%
same,PT,"72 h, time 3 day",11.9 s
same,Plat,"72 h, time 3 day",118.8 x10_4/uL
same,RBC,"72 h, time 3 day",614 x10_4/ul
same,Ret,"72 h, time 3 day",5.7%
same,WBC,"72 h, time 3 day",105.7 x10_2/uL
same,KIDNEY_L,"72 h, time 3 day",1 g
same,KIDNEY_R,"72 h, time 3 day",1 g
same,KIDNEY_TOTAL,"72 h, time 3 day",2 g
same,LIVER,"72 h, time 3 day",11.2 g
same,A/G,"72 h, time 3 day",1.6
same,ALP,"72 h, time 3 day",1029.8 IU/L
same,ALT,"72 h, time 3 day",35.4 IU/L
same,AST,"72 h, time 3 day",64.2 IU/L
same,BUN,"72 h, time 3 day",14.4 mg/dL
same,CRE,"72 h, time 3 day",0.4 mg/dL
same,Ca,"72 h, time 3 day",11 mg/dL
same,Cl,"72 h, time 3 day",103.2 meq/L
same,DBIL,"72 h, time 3 day",0.088 mg/dL
same,GLC,"72 h, time 3 day",193.2 mg/dL
same,IP,"72 h, time 3 day",7.6 mg/dL
same,K,"72 h, time 3 day",4.2 meq/L
same,LDH,"72 h, time 3 day",173 IU/L
same,Na,"72 h, time 3 day",141 meq/L
same,PL,"72 h, time 3 day",143.6 mg/dL
same,RALB,"72 h, time 3 day",3.5 g/dL
same,TBIL,"72 h, time 3 day",0.1 mg/dL
same,TC,"72 h, time 3 day",70.6 mg/dL
same,TG,"72 h, time 3 day",87.4 mg/dL
same,TP,"72 h, time 3 day",5.6 g/dL
same,gamma-GTP,"72 h, time 3 day",1 IU/L
same,TERMINAL_BW,"[…], time 7 day",261.7 g
same,TERMINAL_BW,"[…], time 14 day",316.1 g
same,TERMINAL_BW,"[…], time 28 day",409.8 g
same,APTT,"[…], time 7 day",18.5 s
same,Bas,"[…], time 7 day",0%
same,Eos,"[…], time 7 day",0.8%
same,Fbg,"[…], time 7 day",219.2 mg/dL
same,Hb,"[…], time 7 day",13.8 g/dL
same,Ht,"[…], time 7 day",39.1%
same,Lym,"[…], time 7 day",81.4%
same,MCH,"[…], time 7 day",21.3 pg
same,MCHC,"[…], time 7 day",35.5%
same,MCV,"[…], time 7 day",60.1 fL
same,Mono,"[…], time 7 day",2.8%
same,Neu,"[…], time 7 day",13.4%
same,PT,"[…], time 7 day",11.7 s
same,Plat,"[…], time 7 day",121.6 x10_4/uL
same,RBC,"[…], time 7 day",650.6 x10_4/ul
same,Ret,"[…], time 7 day",4.7%
same,WBC,"[…], time 7 day",105 x10_2/uL
same,APTT,"[…], time 14 day",20.6 s
same,Bas,"[…], time 14 day",0%
same,Eos,"[…], time 14 day",1%
same,Fbg,"[…], time 14 day",228.8 mg/dL
same,Hb,"[…], time 14 day",14.3 g/dL
same,Ht,"[…], time 14 day",40.5%
same,Lym,"[…], time 14 day",76.4%
same,MCH,"[…], time 14 day",21.4 pg
same,MCHC,"[…], time 14 day",35.2%
same,MCV,"[…], time 14 day",60.8 fL
same,Mono,"[…], time 14 day",2.2%
same,Neu,"[…], time 14 day",18.6%
same,PT,"[…], time 14 day",12.1 s
same,Plat,"[…], time 14 day",108.8 x10_4/uL
same,RBC,"[…], time 14 day",667.4 x10_4/ul
same,Ret,"[…], time 14 day",4.2%
same,WBC,"[…], time 14 day",111.1 x10_2/uL
same,APTT,"[…], time 28 day",19.1 s
same,Bas,"[…], time 28 day",0%
same,Eos,"[…], time 28 day",1%
same,Fbg,"[…], time 28 day",249 mg/dL
same,Hb,"[…], time 28 day",15.3 g/dL
same,Ht,"[…], time 28 day",43.8%
same,Lym,"[…], time 28 day",81.4%
same,MCH,"[…], time 28 day",20.1 pg
same,MCHC,"[…], time 28 day",35%
same,MCV,"[…], time 28 day",57.4 fL
same,Mono,"[…], time 28 day",2%
same,Neu,"[…], time 28 day",14.4%
same,PT,"[…], time 28 day",11.8 s
same,Plat,"[…], time 28 day",111.8 x10_4/uL
same,RBC,"[…], time 28 day",763.4 x10_4/ul
same,Ret,"[…], time 28 day",2.7%
same,WBC,"[…], time 28 day",91.7 x10_2/uL
same,KIDNEY_L,"[…], time 7 day",1.1 g
same,KIDNEY_R,"[…], time 7 day",1.1 g
same,KIDNEY_TOTAL,"[…], time 7 day",2.2 g
same,KIDNEY_L,"[…], time 14 day",1.2 g
same,KIDNEY_R,"[…], time 14 day",1.2 g
same,KIDNEY_TOTAL,"[…], time 14 day",2.4 g
same,KIDNEY_L,"[…], time 28 day",1.4 g
same,KIDNEY_R,"[…], time 28 day",1.4 g
same,KIDNEY_TOTAL,"[…], time 28 day",2.9 g
same,LIVER,"[…], time 7 day",11.4 g
same,LIVER,"[…], time 14 day",13.7 g
same,LIVER,"[…], time 28 day",17.3 g
same,A/G,"[…], time 7 day",1.5
same,ALP,"[…], time 7 day",908 IU/L
same,ALT,"[…], time 7 day",38.8 IU/L
same,AST,"[…], time 7 day",69.4 IU/L
same,BUN,"[…], time 7 day",14.8 mg/dL
same,CRE,"[…], time 7 day",0.4 mg/dL
same,Ca,"[…], time 7 day",10.6 mg/dL
same,Cl,"[…], time 7 day",103.4 meq/L
same,DBIL,"[…], time 7 day",0.07 mg/dL
same,GLC,"[…], time 7 day",229.4 mg/dL
same,IP,"[…], time 7 day",6.9 mg/dL
same,K,"[…], time 7 day",3.8 meq/L
same,LDH,"[…], time 7 day",181 IU/L
same,Na,"[…], time 7 day",140.4 meq/L
same,PL,"[…], time 7 day",135.4 mg/dL
same,RALB,"[…], time 7 day",3.3 g/dL
same,TBIL,"[…], time 7 day",0.1 mg/dL
same,TC,"[…], time 7 day",71 mg/dL
same,TG,"[…], time 7 day",68.2 mg/dL
same,TP,"[…], time 7 day",5.6 g/dL
same,gamma-GTP,"[…], time 7 day",1 IU/L
same,A/G,"[…], time 14 day",1.5
same,ALP,"[…], time 14 day",880 IU/L
same,ALT,"[…], time 14 day",31 IU/L
same,AST,"[…], time 14 day",58.8 IU/L
same,BUN,"[…], time 14 day",16 mg/dL
same,CRE,"[…], time 14 day",0.5 mg/dL
same,Ca,"[…], time 14 day",10.5 mg/dL
same,Cl,"[…], time 14 day",103 meq/L
same,DBIL,"[…], time 14 day",0.092 mg/dL
same,GLC,"[…], time 14 day",233.6 mg/dL
same,IP,"[…], time 14 day",7.1 mg/dL
same,K,"[…], time 14 day",3.9 meq/L
same,LDH,"[…], time 14 day",154.4 IU/L
same,Na,"[…], time 14 day",140.6 meq/L
same,PL,"[…], time 14 day",142.8 mg/dL
same,RALB,"[…], time 14 day",3.4 g/dL
same,TBIL,"[…], time 14 day",0.2 mg/dL
same,TC,"[…], time 14 day",73.4 mg/dL
same,TG,"[…], time 14 day",101.4 mg/dL
same,TP,"[…], time 14 day",5.6 g/dL
same,gamma-GTP,"[…], time 14 day",0.8 IU/L
same,A/G,"[…], time 28 day",1.3
same,ALP,"[…], time 28 day",665 IU/L
same,ALT,"[…], time 28 day",33.4 IU/L
same,AST,"[…], time 28 day",56.6 IU/L
same,BUN,"[…], time 28 day",18.8 mg/dL
same,CRE,"[…], time 28 day",0.5 mg/dL
same,Ca,"[…], time 28 day",10.6 mg/dL
same,Cl,"[…], time 28 day",103.4 meq/L
same,DBIL,"[…], time 28 day",0.1 mg/dL
same,GLC,"[…], time 28 day",242.8 mg/dL
same,IP,"[…], time 28 day",7 mg/dL
same,K,"[…], time 28 day",3.8 meq/L
same,LDH,"[…], time 28 day",111.2 IU/L
same,Na,"[…], time 28 day",140.6 meq/L
same,PL,"[…], time 28 day",151.8 mg/dL
same,RALB,"[…], time 28 day",3.6 g/dL
same,TBIL,"[…], time 28 day",0.2 mg/dL
same,TC,"[…], time 28 day",74.2 mg/dL
same,TG,"[…], time 28 day",141.4 mg/dL
same,TP,"[…], time 28 day",6.2 g/dL
same,gamma-GTP,"[…], time 28 day",1.6 IU/L
